Test results reported in patent US20230242616A1, “CHEMOKINE-SELECTIVE CXCR4 ECTODOMAIN-DERIVED (POLY)PEPTIDE” (Ludwig-Maximilians-Universität München, priority 2020, published 2023).
pIC50, pKd: −log10 of the molar value. “Also recorded” adds a separate entry of the source. Where two headings read alike, the source gives them in different places. Where a SMILES comes first, the peptide text is derived from it. [ ]: non-standard residue; d: D form. 12Ado = NCCCCCCCCCCCC(=O)O; Aoc = NCCCCCCCC(=O)O; Ahx = NCCCCCC(=O)O; AEA = NCCOCC(=O)O

Key:
[1] = system: primary mouse spleen B lymphocytes; assay: Transwell chemotaxis of B cells elicited by MIF; type: cell-based; conditions: 16 nM MIF
Description: Chemotaxis analysis of murine B cells. A Transwell-based assay was used as described previously^34. Briefly, splenic B cells were isolated by negative depletion using a Pan B Cell Isolation Kit (Miltenyi Biotec. Bergisch Gladbach, Germany). Purity of the cells was between 95 and 99%. […] Chemotaxis was followed for 4 h at 37° C. in a humidified atmosphere of 5% CO2. Migrated cells were counted by flow cytometry using CountBright™ Absolute Counting Beads (Molecular Probes-Invitrogen).

MIF = target: T1, MIF (Homo sapiens, UniProt P14174); assay: Fluorescence spectroscopic titration, binding to MIF
T1 construct: made in house
T1 sequence (P14174 2-115): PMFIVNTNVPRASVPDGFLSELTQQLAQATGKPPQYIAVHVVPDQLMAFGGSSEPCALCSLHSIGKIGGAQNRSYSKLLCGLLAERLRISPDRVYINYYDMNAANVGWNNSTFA
Description: (§1) Fluorescence spectroscopy. Fluorescence spectroscopic titrations were performed as described^28, 32. Fluorescence spectra were recorded using a JASCO FP-6500 fluorescence spectrophotometer. […] Apparent KD values (app. KD) were calculated assuming a 1/1 binding model^32.

[2] = system: primary human monocyte-derived macrophages; assay: Dil-LDL uptake / foam cell formation, MIF-mediated; type: cell-based
Description: Dil-LDL uptake/foam cell formation. […] After washing with imaging solution (MEM without phenol red containing 30 mM HEPES, 0.5 g/L NaHCO3, pH 7.4, and 0.2% BSA), cells were exposed to 50 μg/mL 1,1′-dioctadecyl-3,3,3′3′-tetra-methylindocarbocyanine-labeled LDL (Dil-LDL) for 30 min at 4° C. followed by incubation at 37° C. for 20 min. Cells were washed with ice-cold imaging solution (pH 3.5), fixed, and counter-stained with Hoechst 33258.

CXCL12 = target: T2, CXCL12 (Homo sapiens, UniProt P48061); assay: Fluorescence spectroscopic titration, binding to CXCL12
T2 construct: purchased Peprotech (or a gift of Dr. von Hundelshausen, LMU Munich)
T2 sequence (P48061 22-93): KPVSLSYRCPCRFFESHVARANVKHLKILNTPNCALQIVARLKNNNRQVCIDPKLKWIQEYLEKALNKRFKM
Description: as §1

[3] = Solubility / biophysical properties of next generation mimics
[4] = system: human monocyte-derived macrophages; conditions: read-out: IC50 of MIF-triggered Dil-oxLDL uptake; lower threshold of effect size roughly 50%
[5] = Estimated solubility index by CD spectroscopy; type: physicochemical
Description: Circular dichroism (CD) spectroscopy. […] Far-UV CD measurements were carried out between 195 and 250 nm. The response time was set at 1 s, intervals at 0.1 nm, and bandwidth at 1 nm. All spectra were measured at RT and represent an average of three recorded spectra. Scans were recorded for the ectodomain mimic peptides at a concentration of 1-20 μM in 10 mM sodium phosphate buffer, pH 7.4, containing 1% HFIP, following dilution of freshly made peptide stock solution in HFIP (4° C.) into the buffer-containing cuvette. […] The background spectrum of buffer/1% HFIP alone was subtracted from the spectra of the peptides.

human monocytes = assay: 3D migration of monocytes elicited by MIF (time-lapse microscopy); type: cell-based
Source text: Isolation of human peripheral blood-derived monocytes. Human peripheral blood-derived monocytes were isolated as described^14. Briefly, blood was collected from healthy donors or buffy coat obtained from the blood bank of Munich University Hospital, mixed 1:1 with PBS, and PBMCs isolated by Ficoll-Paque Plus gradient (GE Healthcare). Monocytes were purified by negative depletion using the Monocyte Isolation Kit II (Miltenyi). Monocyte purity was verified by flow cytometry using an anti-CD14 antibody (Miltenyl) and was 95-98%. […] The isolation of PBMCs from donor blood was approved by the local ethics committee of LMU Munich. 3D migration of human peripheral blood-derived monocytes by time-lapse microscopy. The 3D-migration behavior of human monocytes was assessed by time-lapse microscopy and individual cell tracking using the 3D chemotaxis μ-Slide system from Ibidi GmbH (Munich, Germany), adapting the established Ibidi dendritic cell protocol for human monocytes. […] Cell motility was monitored performing time-lapse imaging every 1 min at 37° C. for 2 h using a Leica inverted DMi8-Life Cell Imaging System equipped with a DMC2900 Digital Microscope Camera with CMOS sensor and live cell-imaging software (Leica Microsystems, Wetzlar, Germany). Images were imported as stacks to ImageJ software and analyzed with the manual tracking and chemotaxis/migration tools (Ibidi GmbH).

[6] = read-out: Alexa-488-MIF/ngm app. Kd (±SD), aqueous 1 × b, pH 7.4, 1% HFIP
[7] = Alexa-488-MIF/ngm app. Kd (±SD), aqueous 1 × b, pH 7.4, 1% HFIP
[8] = Fluos-ngm/MIF app. Kd (±SD), aqueous 1 × b, pH 7.4, 1% HFIP

CC[C@H](C)[C@H](NC(=O)[C@H](Cc1ccc(O)cc1)NC(=O)[C@H](CCCNC(=N)N)NC(=O)[C@H](CC(=O)O)NC(=O)CCCCCCCCCCCNC(=O)COCCOCCNC(=O)[C@H](CCCCN)NC(=O)[C@H](CS)NC(=O)[C@H](CC(C)C)NC(=O)[C@H](Cc1ccccc1)NC(=O)[C@H](CC(N)=O)NC(=O)CNC(=O)[C@H](Cc1ccccc1)NC(=O)[C@H](Cc1ccc(O)cc1)NC(=O)[C@H](Cc1c[nH]c2ccccc12)NC(=O)[C@H](CC(N)=O)NC(=O)[C@H](C)NC(=O)[C@@H](NC(=O)[C@H](C)NC(=O)[C@@H](N)CC(=O)O)C(C)C)C(=O)N[C@@H](CS)C(=O)N[C@@H](CC(=O)O)C(=O)N[C@@H](CCCNC(=N)N)C(=O)N[C@@H](Cc1ccccc1)C(=O)N[C@@H](Cc1ccc(O)cc1)C(=O)N1CCC[C@H]1C(=O)N[C@@H](CC(N)=O)C(=O)N[C@@H](CC(=O)O)C(=O)N[C@@H](CC(C)C)C(=O)N[C@@H](Cc1c[nH]c2ccccc12)C(=O)N[C@H](C(N)=O)C(C)C [msR4M-L2]
inhibition of MIF-mediated B-cell chemotaxis [1]: inhibits MIF-triggered B-lymphocyte chemotaxis; also recorded: fully blocked

CC(C)C[C@H](NC(=O)[C@H](CC(=O)O)NC(=O)[C@H](CC(N)=O)NC(=O)[C@@H]1CCCN1C(=O)[C@H](Cc1ccc(O)cc1)NC(=O)[C@H](Cc1ccccc1)NC(=O)[C@H](CCCNC(=N)N)NC(=O)[C@H](CC(=O)O)NC(=O)CCCCCCCCCCCNC(=O)CCCCCNC(=O)[C@H](CCCCN)NC(=O)[C@H](CS)NC(=O)[C@H](CC(C)C)NC(=O)[C@H](Cc1ccccc1)NC(=O)[C@H](CC(N)=O)NC(=O)CNC(=O)[C@H](Cc1ccccc1)NC(=O)[C@H](Cc1ccc(O)cc1)NC(=O)[C@@H](N)Cc1c[nH]c2ccccc12)C(=O)N[C@@H](Cc1c[nH]c2ccccc12)C(N)=O [msR4M-L3] (H-WYFGNFLCK[Ahx][12Ado]DRFYPNDLW-NH2)
pKd (MIF; [6]): 7.93 | pKd (MIF; read-out: Binding affinity (fluorescence spectroscopic titration) Kd, Table 7, reconnected short mimics): 7.85 | pKd (MIF; read-out: Fluos-ngm/MIF app. Kd (±SD), aqueous 1 × b, pH 7.4, 1% HFIP): 7.35 | Atherogenic inhibitory activity (Dil-LDL uptake) [2]: 80% of % of full-length msR4M-L1 | binding to CXCL12 (in words) (CXCL12): essentially no binding affinity for CXCL12 | solubility properties (in words) [3]: less favorable solubility properties

CC(C)C[C@H](NC(=O)[C@H](CC(=O)O)NC(=O)[C@H](CC(N)=O)NC(=O)[C@@H]1CCCN1C(=O)[C@H](Cc1ccc(O)cc1)NC(=O)[C@H](Cc1ccccc1)NC(=O)[C@H](CCCNC(=N)N)NC(=O)[C@H](CC(=O)O)NC(=O)CCCCCCCNC(=O)[C@H](CCCCN)NC(=O)[C@H](CS)NC(=O)[C@H](CC(C)C)NC(=O)[C@H](Cc1ccccc1)NC(=O)[C@H](CC(N)=O)NC(=O)CNC(=O)[C@H](Cc1ccccc1)NC(=O)[C@H](Cc1ccc(O)cc1)NC(=O)[C@@H](N)Cc1c[nH]c2ccccc12)C(=O)N[C@@H](Cc1c[nH]c2ccccc12)C(N)=O [msR4M-L4] (H-WYFGNFLCK[Aoc]DRFYPNDLW-NH2)
pKd (MIF; [7]): 7.36 | pKd (MIF; [8]): 7.92 | Atherogenic inhibitory activity (Dil-LDL uptake) [2]: 80% of % of full-length msR4M-L1 | binding to CXCL12 (in words) (CXCL12): essentially no binding affinity for CXCL12 | solubility properties (in words) [3]: less favorable solubility properties

CC(C)C[C@H](NC(=O)[C@H](CC(=O)O)NC(=O)[C@H](CC(N)=O)NC(=O)[C@@H]1CCCN1C(=O)[C@H](Cc1ccc(O)cc1)NC(=O)[C@H](Cc1ccccc1)NC(=O)[C@H](CCCNC(=N)N)NC(=O)[C@H](CC(=O)O)NC(=O)COCCNC(=O)COCCNC(=O)[C@H](CCCCN)NC(=O)[C@H](CS)NC(=O)[C@H](CC(C)C)NC(=O)[C@H](Cc1ccccc1)NC(=O)[C@H](CC(N)=O)NC(=O)CNC(=O)[C@H](Cc1ccccc1)NC(=O)[C@H](Cc1ccc(O)cc1)NC(=O)[C@@H](N)Cc1c[nH]c2ccccc12)C(=O)N[C@@H](Cc1c[nH]c2ccccc12)C(N)=O [msR4M-L5] (H-WYFGNFLCK[AEA][AEA]DRFYPNDLW-NH2)
pKd (MIF; [7]): 7.38 | pKd (MIF; Binding affinity (fluorescence spectroscopic titration) Kd, Table 8, mimics with enhanced solubility): 7.40 to 7.52 | pKd (MIF; [8]): 7.84 | Atherogenic inhibitory activity (Dil-LDL uptake) [2]: 30% of % of full-length msR4M-L1 | pIC50 [4]: 7.16 | Estimated solubility index by CD spectroscopy [5]: >2× compared to × compared to msR4M-L1 | effect on MIF-triggered 3D monocyte migration (human monocytes): inhibit the MIF-mediated monocytes migration | binding to CXCL12 (in words) (CXCL12): essentially no binding propensity for CXCL12 | solubility properties (in words) [3]: favorable biophysical properties such as solubility

CC(C)C[C@H](NC(=O)[C@H](CC(=O)O)NC(=O)[C@H](CC(N)=O)NC(=O)[C@@H]1CCCN1C(=O)[C@H](Cc1ccc(O)cc1)NC(=O)[C@H](Cc1ccccc1)NC(=O)[C@H](CCCNC(=N)N)NC(=O)[C@H](CC(=O)O)NC(=O)CNC(=O)CNC(=O)CNC(=O)[C@H](CCCCN)NC(=O)[C@H](CS)NC(=O)[C@H](CC(C)C)NC(=O)[C@H](Cc1ccccc1)NC(=O)[C@H](CC(N)=O)NC(=O)CNC(=O)[C@H](Cc1ccccc1)NC(=O)[C@H](Cc1ccc(O)cc1)NC(=O)[C@@H](N)Cc1c[nH]c2ccccc12)C(=O)N[C@@H](Cc1c[nH]c2ccccc12)C(N)=O [msR4M-LG3]
pKd (MIF; [6]): < 5.30

H-WYFGNFLCKDDDDRFYPNDLW-NH2 [msR4M-LD3]
pKd (MIF; [6]): 6.61 | pIC50 [4]: 8.85 | Estimated solubility index by CD spectroscopy [5]: >2× compared to × compared to msR4M-L1 | effect on MIF-triggered 3D monocyte migration (human monocytes): inhibit the MIF-mediated monocytes migration | pIC50 (human monocytes; 3D migration, one experiment, read-out: IC50 of MIF-mediated monocyte migration): 7.74 | binding to CXCL12 (in words) (CXCL12): essentially no binding propensity for CXCL12 | solubility properties (in words) [3]: performing most superior

H-WYFGNFLCKKKKDRFYPNDLW-NH2 [msR4M-LK3]
binding to CXCL12 (in words) (CXCL12): good binding affinity for CXCL12 | solubility properties (in words) [3]: very good solubility properties

H-WYFGNFLCKRRRDRFYPNDLW-NH2 [msR4M-LR3]
Estimated solubility index by CD spectroscopy [5]: >2× compared to × compared to msR4M-L1 | binding to CXCL12 (in words) (CXCL12): good binding affinity for CXCL12 | solubility properties (in words) [3]: very good solubility properties
